# Laboratory results as given in ChEMBL document CHEMBL3120052, “HCV polymerase inhibitors” (ACS Med Chem Lett, 2014).
# Test system: Hepatitis C virus
# Assay: Antiviral activity against HCV genotype 1b expressing wild type NS3-NS5B infected in HuH7 luc/neo cells assessed as inhibition of RNA replication after 3 days by luciferase reporter gene assay
# Format: functional, organism-based, Hepacivirus hominis
# Settings: Huh-7, 72 h
row,SMILES,EC50
1,C[C@H](NP(=O)(OC[C@H]1O[C@@H](n2ccc(=O)[nH]c2=O)[C@](C)(N)[C@@H]1O)Oc1ccccc1)C(=O)OC1CCCCCC1 (stereo partly drawn),190 nM
2,C[C@H](NP(=O)(OC[C@H]1O[C@@H](n2ccc(=O)[nH]c2=O)[C@](C)(NC(=O)OC(C)(C)C)[C@@H]1O)Oc1ccccc1)C(=O)OC1CCCCCCC1 (stereo partly drawn),15000 nM
3,C[C@H](NP(=O)(OC[C@H]1O[C@@H](n2ccc(=O)[nH]c2=O)[C@](C)(N)[C@@H]1O)Oc1ccccc1)C(=O)OCCC(C)(C)C (stereo partly drawn),490 nM
4,C[C@H](NP(=O)(OC[C@H]1O[C@@H](n2ccc(=O)[nH]c2=O)[C@](C)(N)[C@@H]1O)Oc1ccccc1)C(=O)OC1CCCC1 (stereo partly drawn),470 nM
5,C[C@H](NP(=O)(OC[C@H]1O[C@@H](n2ccc(=O)[nH]c2=O)[C@](C)(N)[C@@H]1O)Oc1ccccc1)C(=O)OC1CCCCCCC1 (stereo partly drawn),290 nM
6,C[C@H](NP(=O)(OC[C@H]1O[C@@H](n2ccc(=O)[nH]c2=O)[C@](C)(NC(=O)OC(C)(C)C)[C@@H]1O)Oc1ccccc1)C(=O)OC1CCCC1 (stereo partly drawn),4700 nM
7,C[C@H](NP(=O)(OC[C@H]1O[C@@H](n2ccc(=O)[nH]c2=O)[C@](C)(NC(=O)OC(C)(C)C)[C@@H]1O)Oc1ccccc1)C(=O)OCCC(C)(C)C (stereo partly drawn),2300 nM
8,C[C@H](NP(=O)(OC[C@H]1O[C@@H](n2ccc(=O)[nH]c2=O)[C@](C)(NC(=O)OC(C)(C)C)[C@@H]1O)Oc1ccccc1)C(=O)OC1CCCCCC1 (stereo partly drawn),3000 nM
